Experimental data from patent US7504425B2 (priority 2002, dated 2009).

Biological target: Bacillus anthracis lethal factor (Bacillus anthracis, UniProt P15917)
Assay: biochemical

Sequence of Bacillus anthracis lethal factor (P15917 34-809 limits assumed): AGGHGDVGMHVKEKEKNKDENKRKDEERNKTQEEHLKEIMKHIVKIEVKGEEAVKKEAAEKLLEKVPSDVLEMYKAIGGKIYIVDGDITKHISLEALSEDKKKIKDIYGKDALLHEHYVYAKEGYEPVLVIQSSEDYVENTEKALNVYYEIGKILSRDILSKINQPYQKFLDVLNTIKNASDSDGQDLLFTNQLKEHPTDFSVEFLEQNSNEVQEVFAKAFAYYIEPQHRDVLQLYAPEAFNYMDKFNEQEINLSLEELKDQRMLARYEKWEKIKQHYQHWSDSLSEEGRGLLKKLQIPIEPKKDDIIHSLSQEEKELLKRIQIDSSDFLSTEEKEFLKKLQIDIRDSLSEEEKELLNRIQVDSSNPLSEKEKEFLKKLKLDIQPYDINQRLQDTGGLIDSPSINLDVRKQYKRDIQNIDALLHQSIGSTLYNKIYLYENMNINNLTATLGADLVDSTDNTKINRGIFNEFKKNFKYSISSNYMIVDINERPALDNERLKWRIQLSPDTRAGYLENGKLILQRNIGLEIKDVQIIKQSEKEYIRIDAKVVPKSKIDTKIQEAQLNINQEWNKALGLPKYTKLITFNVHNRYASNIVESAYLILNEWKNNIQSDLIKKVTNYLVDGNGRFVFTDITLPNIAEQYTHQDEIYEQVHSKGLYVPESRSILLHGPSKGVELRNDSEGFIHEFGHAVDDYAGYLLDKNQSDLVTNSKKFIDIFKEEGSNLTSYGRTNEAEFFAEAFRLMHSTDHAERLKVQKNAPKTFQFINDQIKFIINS

In the case of Cc1cc(S(=O)(=O)N[C@@H](C(=O)NO)C2CCOCC2)ccc1F, the IC50 is reported as 60 nM.
